Results on 13 compounds are retold here after PMC9114433 (Frontiers in Chemistry, 2022).

Values joined by “and” are separate entries in the source; they are usually repeats but may differ in a detail not shown here. Equal values may be shown once. Read-outs that look alike come from different tables or passages of the source.

For series [1], the target named is T1, hHAO1 (Homo sapiens, UniProt Q9UJM8).
T1 sequence (Q9UJM8 1-368): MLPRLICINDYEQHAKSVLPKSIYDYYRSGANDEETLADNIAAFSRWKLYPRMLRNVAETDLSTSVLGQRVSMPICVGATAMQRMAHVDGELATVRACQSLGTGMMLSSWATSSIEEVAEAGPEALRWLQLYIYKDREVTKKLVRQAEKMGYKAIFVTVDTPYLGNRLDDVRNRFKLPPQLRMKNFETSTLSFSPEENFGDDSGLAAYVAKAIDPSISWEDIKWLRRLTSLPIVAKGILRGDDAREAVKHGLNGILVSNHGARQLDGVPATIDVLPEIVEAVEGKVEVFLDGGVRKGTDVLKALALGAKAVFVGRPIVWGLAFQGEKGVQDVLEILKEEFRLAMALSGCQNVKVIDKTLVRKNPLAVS
Briefly: Amplex Red fluorescence hydrogen peroxide activity assay. The format is biochemical. More on the design: A hHAO1 construct, encoding residues Met1-Ser368, with an engineered N-terminal His6-tag; His6 (N); made in house; host or cells: E. coli BL21 (DE3). As to conditions: for Km: substrate titration, 30 nM hHAO1; for inhibition mode with respect to glycolate: glycolate 0–500 µM, compound 0–1 mM, best fitting model in GraphPad Prism; for Vmax, Best-fit, 1 mM: Vmax in the presence of 1 mM compound, reaction rate as µM; for LLEAT (Astex lipophilic ligand efficiency score): from hHAO1 IC50; for fold increase in potency: relative to parent fragment scaffold (fragment 1 for 7, 8; fragment 2 for 9–12); for 95% CI α / α (Best-fit): mixed model inhibition fit; for 95% CI α: 95% confidence interval; for α (Best-fit): ratio between αKi (enzyme-substrate complex) and Ki (free enzyme). How it is done: hHAO1 activity in vitro was determined using the Amplex Red fluorescence hydrogen peroxide assay (Sigma Aldrich). […] The assay buffer contained 50 mM sodium phosphate, pH 7.4, 200 mM KCl, 2 mM MgCl2, and 0.01% TritonX. Determination of suitable assay parameters is described in the Supplementary Material. […] Following 10 min incubation at room temperature, 10 µl/well of Amplex Red reagent was added. […] All reactions were performed in technical triplicates for two different preparations of hHAO1. Reaction rate, defined as total H2O2 produced by the hHAO1 reaction, was determined from the H2O2 standard curve. […] This value is defined as the […] the inhibition constant for the free enzyme (Ki) and the inhibition constant for the enzyme-substrate complex (αKi) and can be related to the initial velocity (V0), substrate concentration ([S]), inhibitor concentration ([I]), and other kinetic parameters (Km, Vmax, Ki) as follows: V0 = Vmax [S]/(Km (1 + [I]/Ki) + [S](1 + [I]/(α∗Ki))). […]
6.2 Establishing parameters for Amplex Red activity assay
HAO1 activity was measured by coupling production of H2O2 by hHAO1 with the H2O2-dependent conversion of Amplex Red to its fluorescent product resorufin by […] peroxidase (Figure S7A).
To determine an incubation period resulting in measurements being made at initial rate conditions that also generated sufficient fluorescence signal, activity of 30 nM hHAO1 in the presence of 30 μM glycolate was measured every 1.5 minutes for a period of 60 minutes ([…]).
To confirm recombinant hHAO1 used in this work was active, the reaction rate of 30 nM hHAO1 was measured across a range of glycolate (Figure S7C) and 2-hydroxypalmitate (Figure S7D) concentrations.
(1 picture or pasted object on this page, not shown here)
Figure S8: Set-up of hHAO1 Amplex Red activity assay. (A) Schematic showing how hHAO1 activity is measured using the Amplex Red assay. (B) Plot of reaction rate (hydrogen peroxide […], µM) of 30 nM hHAO1 over time (minutes) in the presence of 30 µM glycolate. (C) Plot of relative fluorescence versus hydrogen peroxide concentration showing the standard curve fitted within the linear range of the Amplex Red reagent. (D) Michaelis-Menten plot of glycolate concentration versus reaction rate for 30 nM hHAO1. Inset: chemical structure of glycolate. (E) Michaelis-Menten plot of 2-hydroxypalmitate concentration versus reaction rate for 30 nM hHAO1. Inset: chemical structure of 2-hydroxypalmitate.

The target in series [2] is flavin dehydrogenase domain of yeast flavocytochrome b2. More on the design: method as in Chen et al., 2012. As to conditions: ref Chen et al., 2012; cited from earlier work.
The subject of series [3] is HAO. More on the design: method as in ref Chen et al., 2012; Martin-Higueras, Luis-Lima, and Salido 2016. As to conditions: published kinetics against mGO, rat LCHAO, yeast flavocytochrome b2, hHAO1; ref Chen et al., 2012; Martin-Higueras, Luis-Lima, and Salido 2016; cited from earlier work.
In series [4] the test system is rat LCHAO (equivalent to hHAO2). More on the design: method as in Chen et al., 2012. As to conditions: ref Chen et al., 2012; cited from earlier work.
Series [5] relates to mGO. More on the design: method as in ref Martin-Higueras, Luis-Lima, and Salido 2016; Moya-Garzón et al., 2018. As to conditions: purified mGO; ref Martin-Higueras, Luis-Lima, and Salido 2016; Moya-Garzón et al., 2018; cited from earlier work.
Series [6] has as its target T1, hHAO1. As to conditions: read-out: Km (substrate), published value; ref Wang et al. 2016; cited from earlier work.
The mark [7] stands for this setting: 30 nM hHAO1, 30 µM glycolate, log(inhibitor) vs response fit, read-out: IC50 (Best-fit).
[8] abbreviates: 30 µM glycolate, 95% confidence interval of fit, read-out: 95% CI IC50.
[9] abbreviates: 95% confidence interval of fit, read-out: 95% CI Ki.
Setting [10] is: compound 0–1 mM vs glycolate 0–500 µM, read-out: Ki (Best-fit).
Setting [11] is: at 1 mM compound, glycolate titration.

For `CCCCCCCCCCCCCCC(O)C(=O)O` (centres unmarked) [2-hydroxypalmitate], in series [1] (relative to glycolate), the “fold higher Km” value is 100 fold. Moreover, the Km in series [1] (read-out: Km apparent (substrate)) amounted to 1200 ± 400 µM.

On to `O=C(O)c1nnsc1Sc1ccc(Cl)cc1` [CCPST, 4-carboxy-5-[(4-chlorophenyl)sulfanyl]-1,2,3-thiadiazole], for which the figures for the IC50 in series [2], in series [4] and in series [5] were 6 µM, 3.6 µM and 43 to 198 µM, respectively. Further, the inhibition mode result in series [3] is “non-competitive inhibition mode”. Moreover, the “inhibition mode with respect to glycolate” value in series [1] was “competitive inhibition mode”.

On to `O=C(NO)c1n[nH]c2ccccc12` [Compound 7], for which the concentration for half-maximal inhibition (IC50) in series [1] (setting [7]) came out at 153 µM. In addition, the IC50 in series [1] (setting [8]) fell in the range of 110 to 215 µM. For the same compound, the Ki in series [1] (setting [9]) lay in the range of 56.7 to 64.2 µM. In addition, in series [1], the “Vmax, Best-fit, 1 mM” value is 47.76 µM; the “LLEAT (Astex lipophilic ligand efficiency score)” value (shortened to “LLEAT”) is reported as 0.40 kcal/mol; the “fold increase in potency” value is on record as 5 fold. Moreover, the Ki in series [1] (setting [10]) turned out to be 60.4 µM.

For `NCCNC(=O)c1n[nH]c2ccccc12` [Compound 8], the IC50 in series [1] (setting [7]) was 81 µM and 81.3 µM. In addition, the IC50 in series [1] (setting [8]) lay in the range of 57.1 to 117 µM. In addition, the inhibition constant Ki in series [1] (setting [9]) is 37.7 to 44.3 µM. In addition, in series [1], the “Vmax, Best-fit, 1 mM” value was 54.60 µM; the “LLEAT” value was found to be 0.47 kcal/mol; the “inhibition mode with respect to glycolate” value is reported as “competitive inhibition”; the “fold increase in potency” value is 5 fold. Also, in series [1] (setting [10]), the Ki turned out to be 40.9 µM.

On to `Nc1c(C(=O)O)[nH]c(=O)[nH]c1=O` [Compound 9], for which, in series [1] (setting [7]), the half-maximal inhibitory concentration (IC50) was 93 µM and 93.3 µM. Besides, in series [1] (setting [8]), the IC50 was 48.1 to 193 µM. For the same compound, the inhibition constant (Ki) in series [1] (setting [9]) lay within 113 to 126 µM. Besides, in series [1], the “Vmax, Best-fit, 1 mM” value was 56.25 µM; the “LLEAT” value is 0.71 kcal/mol; the “fold increase in potency” value is on record as “more than 10 fold”. In addition, the inhibition constant Ki in series [1] (setting [10]) stood at 119 µM. For the same compound, the fold lower potency in series [1] (relative to compound 12) was determined as 3 fold.

As for `Cn1cc(N)c(=O)n(C)c1=O` [Compound 10], the 50% inhibitory concentration (IC50) in series [1] (setting [7]) was 60 µM and 59.8 µM; in series [1] (setting [8]) it was 39.5 to 92 µM. Besides, the inhibition constant (Ki) in series [1] (setting [9]) was 157 to 177 µM; in series [1] (setting [10]), 167 µM. Further, the “Vmax, Best-fit, 1 mM” value in series [1] is on record as 56.47 µM. In addition, the “LLEAT” value in series [1] was 0.77 kcal/mol. In addition, the “fold increase in potency” value in series [1] is “more than 10 fold”.

With `Cn1cc(N)c(=O)[nH]c1=O` [Compound 11], the IC50 in series [1] (setting [7]) is 40 µM and 39.8 µM. Besides, in series [1] (setting [8]), the half-maximal inhibitory concentration (IC50) was in the range of 22.8 to 71.1 µM. Also, the Ki in series [1] (setting [9]) lay within 219 to 248 µM. In addition, in series [1], the “Vmax, Best-fit, 1 mM” value is 55.85 µM; the “LLEAT” value was determined as 0.88 kcal/mol; the “fold increase in potency” value is given as “more than 10 fold”. Further, the inhibitory constant (Ki) in series [1] (setting [10]) turned out to be 233 µM.

With `CC1=NC(=O)NC(=O)C1N` (centres unmarked) [Compound 12], in series [1] (setting [7]), the 50% inhibitory concentration (IC50) was 27 µM and 27.4 µM. Further, the IC50 in series [1] (setting [8]) was 19.9 to 38 µM. The inhibition constant (Ki) in series [1] (setting [9]) was in the range of 141 to 156 µM. Further, in series [1], the “Vmax, Best-fit, 1 mM” value is given as 54.05 µM; the “LLEAT” value was found to be 0.89 kcal/mol; the “fold increase in potency” value is recorded as “more than 10 fold”. The inhibitory constant (Ki) in series [1] (setting [10]) was determined as 148 µM.

In the case of `O=C(Nc1cccnc1)N1CCN(c2ccccc2O)CC1` [Compound 13], the IC50 in series [1] (setting [7]) is 44 µM and 43.8 µM. In series [1] (setting [8]), the IC50 fell in the range of 27.4 to 71.4 µM. Also, in series [1] (setting [9]), the Ki lay in the range of 59.1 to 82.9 µM. Moreover, in series [1], the “Vmax, Best-fit, 1 mM” value worked out at 27.28 µM; the “LLEAT” value stood at 0.30 kcal/mol; the “inhibition mode with respect to glycolate” value was “mixed model inhibition”; the “95% CI α” value was 7.84–27.32. Besides, in series [1], the “α (Best-fit)” value is given as 13.27. The “fold increase in Km” value in series [1] (setting [11]) is on record as “up to 4 fold”. In addition, the Ki in series [1] (setting [10]) is 69.7 µM.

Regarding `Cc1cc(NC(=O)N2CCN(c3cccc(O)c3)CC2)no1` [Compound 14], in series [1] (setting [7]), the half-inhibitory concentration (IC50) was 158 µM. In addition, the half-inhibitory concentration (IC50) in series [1] (setting [8]) fell in the range of 100 to 256 µM. Moreover, the inhibitory constant (Ki) in series [1] (setting [9]) was 83.1 to 119 µM. In addition, in series [1], the “Vmax, Best-fit, 1 mM” value is recorded as 43.12 µM; the “LLEAT” value is on record as 0.25 kcal/mol; the “inhibition mode with respect to glycolate” value is given as “mixed model inhibition”; the “95% CI α” value is 9.41–59.28. Also, in series [1], the “α (Best-fit)” value was 18 and 18.4. Moreover, in series [1] (setting [11]), the “fold increase in Km” value is listed as “up to 4.9 fold” and the “fold reduction in Vmax” value is reported as “up to 1.7 fold”. Besides, the Ki in series [1] (setting [10]) is 98.9 µM.

For `Cn1nc(C(N)=O)c2ccccc21` [Fragment 1], the IC50 in series [1] (setting [7]) came out at 420 µM.

On to `O=C(C1CC1)N1CCN(c2ccc(F)cc2)CC1` [Fragment 3], for which at 1000 µM the inhibition in series [1] (1 mM fragment) was 2%. This compound registered an inhibition at 10000 µM in series [1] (10 mM fragment) of 19%.

Consider `O=C(O)CO` [glycolate], for which the Michaelis constant (Km) in series [6] is 74.5 µM; in series [1] (read-out: Km (substrate)), 18.9 ± 0.8 µM.

As usually defined, the Km is the concentration of substrate that gives half-maximal velocity. What is called IC50 is the midpoint of a concentration-inhibition curve. As usually defined, the Ki is the dissociation constant of the complex between target and ligand, obtained from inhibition or displacement. One may read the inhibition as the relative decrease from the control value, in per cent. The low end stands for a weak effect, the high end for a strong effect.
